In patent US20190231791A1, “Combination Therapy” (Eli Lilly and Company, priority 2016, published 2019):
Like-named read-outs stand apart in the source and are kept apart here.

How the values were obtained:
human BACE2 (1-460):Fc = target: T1, human BACE2 (1-460):Fc (Homo sapiens, UniProt Q9Y5Z0); test: BACE2 MBP-C125Swe assay; type: biochemical
T1 construct: 10 μL of 200 picomolar human BACE2 (1-460):Fc in the same reaction buffer; made in house; host or cells: HEK293 (transient transfection, purified from conditioned media by Protein A)
T1 sequence (Q9Y5Z0 21-460): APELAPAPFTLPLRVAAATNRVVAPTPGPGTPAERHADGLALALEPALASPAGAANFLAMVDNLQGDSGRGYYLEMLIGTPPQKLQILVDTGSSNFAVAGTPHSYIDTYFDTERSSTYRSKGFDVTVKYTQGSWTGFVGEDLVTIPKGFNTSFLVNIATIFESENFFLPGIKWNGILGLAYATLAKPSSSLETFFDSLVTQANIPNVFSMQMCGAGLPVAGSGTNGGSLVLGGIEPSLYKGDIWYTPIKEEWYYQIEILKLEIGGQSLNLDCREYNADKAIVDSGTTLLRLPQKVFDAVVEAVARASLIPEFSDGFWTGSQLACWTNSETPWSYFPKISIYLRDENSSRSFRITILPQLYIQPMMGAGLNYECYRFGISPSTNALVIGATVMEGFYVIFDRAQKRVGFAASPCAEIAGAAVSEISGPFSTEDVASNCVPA
Method: (§1) To assess selectivity of BACE1 over BACE2, the test compound is evaluated in FRET and immunoassay detection base enzymatic assays using specific substrates for BACE1 and BACE2 as described below. For in vitro enzymatic and cellular assays, the test compound is prepared in DMSO to make up a 10 mM stock solution. The stock solution is serially diluted in DMSO to obtain a ten-point dilution curve with final compound concentrations ranging from 10 μM to 0.05 nM in a 96-well round-bottom plate before conducting the in vitro enzymatic and whole cell assays.
Human BACE1 (accession number: AF190725) and human BACE2 (accession number: AF 204944) are cloned from total brain cDNA by RT-PCR. The nucleotide sequences corresponding to amino acid sequences #1 to 460 are inserted into the cDNA encoding human IgG1 (Fc) polypeptide (Vassar et al., Science, 286, 735-742 (1999)). This fusion protein of BACE1(1-460) or BACE2(1-460) and human Fc, named huBACE1:Fc and huBACE2:Fc respectively, are constructed in the pJB02 vector. […]
Conditioned media of HEK293 cells transiently transfected with huBACE1:Fc or huBACE2:Fc cDNA are collected. […] The purity of final product is assessed by electrophoresis in 4-20% Tris-Glycine SDS-PAGE. […]
10 point serial dilutions of test compounds are prepared in the appropriate range. […] The amount of product is measured by ELISA using MBP-C26swe standard. […]

BACE1 = target: T2, BACE1 (Homo sapiens, UniProt P56817); test: SH-SY5YAPP695Wt whole cell assay (Abeta ELISA); type: cell-based; settings: 24 hours incubation
T2 construct: endogenous in cells; host or cells: SH-SY5Y (ATCC CRL2266) stably expressing human APP695Wt
T2 sequence (P56817 46-501): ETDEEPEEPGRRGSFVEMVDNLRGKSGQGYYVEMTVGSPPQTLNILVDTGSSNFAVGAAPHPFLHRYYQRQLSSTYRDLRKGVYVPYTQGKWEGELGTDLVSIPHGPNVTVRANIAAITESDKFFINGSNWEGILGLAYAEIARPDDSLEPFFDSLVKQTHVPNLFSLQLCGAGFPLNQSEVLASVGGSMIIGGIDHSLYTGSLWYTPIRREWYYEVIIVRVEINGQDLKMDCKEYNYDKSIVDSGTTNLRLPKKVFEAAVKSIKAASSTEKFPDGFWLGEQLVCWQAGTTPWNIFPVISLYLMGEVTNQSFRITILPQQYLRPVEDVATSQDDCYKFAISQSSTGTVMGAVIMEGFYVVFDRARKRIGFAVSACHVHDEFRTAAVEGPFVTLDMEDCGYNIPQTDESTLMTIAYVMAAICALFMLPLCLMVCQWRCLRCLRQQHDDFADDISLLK
Method: as §1
The routine whole cell assay for the measurement of inhibition of BACE1 activity utilizes the human neuroblastoma cell line SH-SYSY (ATCC Accession No. CRL2266) stably expressing a human APP695Wt cDNA. Cells are routinely used up to passage number 6 and then discarded.
SH-SY5YAPP695Wt cells are plated in 96 well tissue culture plates at 5.0×10^4 cells/well in 200 μL culture media (50% MEM/EBSS and Ham's F12, 1× each sodium pyruvate, non-essential amino acids and NaHCO3 containing 10% FBS). […]
At the end of the incubation, conditioned media are analyzed for evidence of beta-secretase activity by analysis of Abeta peptides 1-40 and 1-42 by specific sandwich ELISAs. […]

beta-secretase = target: T3, beta-secretase (Mus musculus, UniProt P56818); test: In vivo inhibition of beta-secretase, brain Abeta 1-x in PDAPP mice; settings: young female PDAPP mice, three hours after dosing, vs vehicle, p<0.01
T3 construct: from tissue; host or cells: brain (hippocampus, cortex) of young female PDAPP mice, in vivo dosing
T3 sequence (P56818 46-501): as the sequence (P56817 46-501) above, with P6S, V162I, L165I, S180T, V182A, I340V, L393A, Q443H counted along it
Text: Several animal models, including mouse, guinea pig, dog, and monkey, may be used to screen for inhibition of beta-secretase activity in vivo following compound treatment. Animals used in this invention can be wild type, transgenic, or gene knockout animals. For example, the PDAPP mouse model, prepared as described in Games et al., Nature 373, 523-527 (1995), and other non-transgenic or gene knockout animals are useful to analyze in vivo inhibition of Abeta and sAPPbeta production in the presence of inhibitory compounds. Generally, 2 month old PDAPP mice, gene knockout mice or non-transgenic animals are administered compound formulated in vehicles, such as corn oil, beta-cyclodextran, phosphate buffers, PHARMASOLVE®, or other suitable vehicles via oral, subcutaneous, intra-venous, feeding, or other route of administration. 1 to 24 hours following the administration of compound, animals are sacrificed, and brains are removed for analysis of Abeta 1-x. “Abeta 1-x” as used herein refers to the sum of Abeta species that begin with residue 1 and end with a C-terminus greater than residue 28. This detects the majority of Abeta species and is often called “total Abeta”. Total Abeta peptides (Abeta 1-x) levels are measured by a sandwich ELISA, using monoclonal 266 as a capture antibody and biotinylated 3D6 as reporting antibody. (See May, et al., Journal of Neuroscience, 31, 16507-16516 (2011)).
For acute studies, compound or appropriate vehicle is administered and animals are sacrificed at about 3 hours after dosing. Brain tissue, is obtained from selected animals and analyzed for the presence of Abeta 1-x. After chronic dosing brain tissues of older APP transgenic animals may also be analyzed for the amount of beta-amyloid plaques following compound treatment.
For example, a 0.1, 0.3, and 1 mg/kg oral dose of Example 1, to young female PDAPP mice reduced Abeta 1-x peptide levels in brain hippocampus by 32%, 40%, and 55% (all values p<0.01), respectively.

selectivity for BACE1 over BACE2 (BACE2 IC50 / BACE1 IC50) (human BACE2 (1-460):Fc): approximately 35 fold | IC50 (BACE1; ± 0.048, n=4, read-out: IC50 for SH-SY5YAPP695Wt A-beta (1-40) ELISA): 0.157 nM | IC50 (BACE1; ± 0.050, n=4, read-out: IC50 for SH-SY5YAPP695Wt A-beta (1-42) ELISA): 0.177 nM | reduction of Abeta 1-x levels in brain cortical tissue (beta-secretase; 0.1 mg/kg oral): 38% | reduction of Abeta 1-x peptide levels in brain hippocampus (beta-secretase; 0.1 mg/kg oral): 32% | reduction of Abeta 1-x levels in brain cortical tissue (beta-secretase; 0.3 mg/kg oral): 50% | reduction of Abeta 1-x peptide levels in brain hippocampus (beta-secretase; 0.3 mg/kg oral): 40% | reduction of Abeta 1-x levels in brain cortical tissue (beta-secretase; 1 mg/kg oral): 67% | reduction of Abeta 1-x peptide levels in brain hippocampus (beta-secretase; 1 mg/kg oral): 55%
Structure (SMILES): CC(F)(F)[C@H]1OC[C@]2(c3cc(NC(=O)c4ccc(C#N)cn4)ccc3F)N=C(N)SC[C@H]12 [Example 1, N-[3-[(4aS,5S,7aS)-2-Amino-5-(1,1-difluoroethyl)-4,4a,5,7-tetrahydrofuro[3,4-d][1,3]thiazin-7a-yl]-4-fluoro-phenyl]-5-cyano-pyridine-2-carboxamide]
